In assay [1] the test system is Saccharomyces cerevisiae strain S288C. Put plainly: Filter disc zone-of-inhibition test of yeast growth with or without PBN in the agar overlay. It is filed as cell-based. Particulars: for inhibition of yeast growth in relation to the carbon source: glycerol or glucose as the carbon source; for Area of Zone of Inhibition, Control / effect on yeast growth, control sample: no PBN; for Area of Zone of Inhibition, Control / Area of Zone of Inhibition, PBN (4.8 A260 units): 30°C, 48 hours; for Area of Zone of Inhibition, PBN (4.8 A260 units): with PBN 4.8 A260 units; for Area of Zone of Inhibition: rifampicin 2.5 mg/disc; for effect on yeast growth, control sample / effect on yeast growth, PBN-containing sample: kanamycin 5.0, streptomycin 2.5, chloramphenicol 0.25 mg/disc, data not shown in Table 1; for effect on yeast growth, PBN-containing sample: with PBN. On the procedure: (§1) A convenient method for ascertaining the inhibition of growth of yeast cells is as follows. A sample of yeast cells (about 10 7 cells) from a viable overnight culture is added to a molten agar-containing growth medium to which has been added the desired amount of PBN. The resulting suspension is mixed rapidly and then poured onto an agar plate containing a suitable growth medium. The molten agar is allowed to solidify and sterile filter discs are placed on the surface. The solution of antibiotics to be tested are then pipetted onto the discs (50 microliters per disc). The plates are incubated and "read" for antibiotic sensitivity as determined by the zone of inhibition around the disc.
(§2) Saccharomyces cerevisiae strain S288C was grown for 16 hours at 30°C in a liquid medium consisting of 1% (w/v) yeast extract, 2% (w/v) peptone, and 2% (w/v) glucose (YPD medium). One drop of cell suspension from this culture (about 5 x 10^6 to about 1 X 10 ^7 cells) was added to each of 2 tubes containing 3 ml of 0.7% agar, 1% yeast extract, 2% peptone, 2% glycerol (or alternatively 2% glucose as a carbon source) and 0.25 ml of 5 M NaCl maintained at 45-50°C to prevent the agar from solidifying. One tube contained., in addition to the above, 0.5 ml of PBN solution (4.8 A260 units) prepared as described above. The other tube served as a control. The tube contents were mixed rapidly and poured onto a Petri plate containing 25 ml of 2% agar, 1% yeast extract, 2% peptone, and 2% glycerol (YPG medium). After the agar had solidified, sterile filter disks (0.5 inch diameter) were placed on the surface of the agar and solutions of various antibiotics to be tested were pipetted onto the disks. The plates were incubated at 30°C for 48 hours and the inhibition of growth was determined by measuring the area of a zone of clearing formed around the discs (minus the area of the disc).
The procedure described in Example I was repeated with Saccharomyces cerevisiae strain S288C except that increasing amounts of PBN were used. The rifampicin concentration on the discs was maintained at 2.5 mg/disc throughout.

The subject of assay [2] is Candida albicans (ATCC 10231). The description is as above. Format: cell-based. Here is the method:
as §1, §2
The procedure described in Example I was repeated with Candida albicans (ATCC 10231). Inhibition of growth of this organism by G-418, rifampicin, cycloheximide and actinomycin D in the presence and absence (control) of PBN was determined.

The mark [3] stands for this setting: YPD medium used for plating, 0.5 mg/disk in dimethylsulfoxide.
Where [4] appears, read: no PBN, G-418 5.0, rifampicin 2.5, cycloheximide 0.5, actinomycin D 0.5 mg/disk.
Where [5] appears, read: with PBN 3.0 A260 units per plate in YPD medium, G-418 5.0, rifampicin 2.5, cycloheximide 0.5, actinomycin D 0.5 mg/disk.
The mark [6] stands for this setting: YPG medium, erythromycin 0.5, G-418 5.0, rifampicin 2.5 mg/disk.

Where two headings read alike, the source gives them in different places. *1 amine or outer side, *2 acyl side, *3 side chain or, on linkers, in order; H or OH if unused. Where a SMILES comes first, the peptide text is derived from it. Bridges are numbered along the chain shown (N, C = ends). Roman numbers before positions name the chains, in order. [ ]: non-standard residue; d: D form. Actinocin(9to1) = Cc1c2oc3c(C)ccc(C(=O)[*:1])c3nc-2c(C(=O)[*:2])c(N)c1=O; NMeV = CN[C@H](C(=O)O)C(C)C; Sar = CNCC(=O)O

Consider `Cc1c2oc3c(C)ccc(C(=O)N[C@@H]4C(=O)N[C@H](C(C)C)C(=O)N5CCC[C@H]5C(=O)N(C)CC(=O)N(C)[C@@H](C(C)C)C(=O)O[C@@H]4C)c3nc-2c(C(=O)N[C@@H]2C(=O)N[C@H](C(C)C)C(=O)N3CCC[C@H]3C(=O)N(C)CC(=O)N(C)[C@@H](C(C)C)C(=O)O[C@@H]2C)c(N)c1=O` [Actinomycin D] (I: T[dV]P[Sar][NMeV] / II: T[dV]P[Sar][NMeV]; ester I:1-I:C, II:1-II:C; linker I:N-II:N via Actinocin(9to1)), for which the “inhibition of yeast growth in relation to the carbon source” value (shortened to “inhibition of yeast growth in relation”) in assay [1] is given as “exhibited inhibition of yeast growth regardless of the carbon source”. Also, in assay [1] (setting [3]), the “Area of Zone of Inhibition, Control” value is reported as <3 mm^2 and the “Area of Zone of Inhibition, PBN (4.8 A260 units)” value was 314 mm^2. For the same compound, in assay [2] (setting [4]), the “Area of Zone of Inhibition, Control” value is given as <3 mm^2. In addition, in assay [2] (setting [5]), the “Area of Zone of Inhibition, PBN” value is reported as 452 mm^2.

Turning to `C[C@@H]1C[C@@H]([C@H](O)CC2CC(=O)NC(=O)C2)C(=O)[C@@H](C)C1` [Cycloheximide], in assay [2], the “Area of Zone of Inhibition, Control” value is <3 mm^2 and the “Area of Zone of Inhibition, PBN” value is recorded as 64 mm^2.

As to `CC[C@H]1OC(=O)[C@H](C)[C@@H](O[C@H]2C[C@@](C)(OC)[C@@H](O)[C@H](C)O2)[C@H](C)[C@@H](O[C@@H]2O[C@H](C)C[C@H](N(C)C)[C@H]2O)[C@](C)(O)C[C@@H](C)C(=O)[C@H](C)[C@@H](O)[C@]1(C)O` [Erythromycin], the “inhibition of yeast growth in relation” value in assay [1] is listed as “effective in this test system only when glycerol (rather than glucose) is used as the carbon source”. For the same compound, in assay [1] (setting [6]), the “Area of Zone of Inhibition, Control” value is on record as 80 mm^2 and the “Area of Zone of Inhibition, PBN (4.8 A260 units)” value amounted to 227 mm^2.

For `CN[C@@H]1[C@@H](O)[C@@H](O[C@@H]2[C@@H](O)[C@H](O[C@H]3O[C@H]([C@@H](C)O)[C@@H](O)[C@H](O)[C@H]3N)[C@@H](N)C[C@H]2N)OC[C@]1(C)O` [G-418], in assay [1], the “inhibition of yeast growth in relation” value is on record as “exhibited inhibition of yeast growth regardless of the carbon source”. The “Area of Zone of Inhibition, Control” value is 113 mm^2 in assay [1] (setting [6]) and 20 mm^2 in assay [2] (setting [4]). In addition, the “Area of Zone of Inhibition, PBN (4.8 A260 units)” value in assay [1] (setting [6]) came to 490 mm^2. In addition, the “Area of Zone of Inhibition, PBN” value in assay [2] (setting [5]) stood at 346 mm^2.

For `CO[C@H]1/C=C/O[C@@]2(C)Oc3c(C)c(O)c4c(O)c(c(/C=N/N5CCN(C)CC5)c(O)c4c3C2=O)NC(=O)/C(C)=C\C=C\[C@H](C)[C@H](O)[C@@H](C)[C@@H](O)[C@@H](C)[C@H](OC(C)=O)[C@@H]1C` [Rifampicin], the “Area of Zone of Inhibition” value in assay [1] (PBN 0.0 A260 units) stood at 0 mm^2; in assay [1] (PBN 1.0 A260 units) it was 3.0 mm^2; in assay [1] (PBN 2.0 A260 units), 20.0 mm^2; in assay [1] (PBN 3.0 A260 units), 38.5 mm^2; in assay [1] (PBN 4.0 A260 units), 38.5 mm^2; in assay [1] (PBN 5.0 A260 units), 50.0 mm^2. In addition, the “Area of Zone of Inhibition” value in assay [1] (PBN 6.0 A260 units) is 64.0 mm^2; in assay [1] (PBN 7.0 A260 units), 78.5 mm^2; in assay [1] (PBN 8.0 A260 units), 71.0 mm^2; in assay [1] (PBN 9.0 A260 units), 78.5 mm^2; in assay [1] (PBN 10.0 A260 units), 95.0 mm^2. Also, the “Area of Zone of Inhibition, Control” value in assay [1] (setting [6]) and in assay [2] (setting [4]) was <3 mm^2 in each case. The “Area of Zone of Inhibition, PBN (4.8 A260 units)” value in assay [1] (setting [6]) is recorded as 95 mm^2. Also, the “Area of Zone of Inhibition, PBN” value in assay [2] (setting [5]) turned out to be 3 mm^2.

As for `O=C(N[C@H](CO)[C@H](O)c1ccc([N+](=O)[O-])cc1)C(Cl)Cl` [chloramphenicol], in assay [1], the “effect on yeast growth, control sample” value is given as “no effect” and the “effect on yeast growth, PBN-containing sample” value (from here on “effect … PBN-containing sample”) is recorded as “no effect”.

As for `NC[C@H]1O[C@H](O[C@H]2[C@H](O)[C@@H](O[C@H]3O[C@H](CO)[C@@H](O)[C@H](N)[C@H]3O)[C@H](N)C[C@@H]2N)[C@H](O)[C@@H](O)[C@@H]1O` [kanamycin], in assay [1], the “effect on yeast growth, control sample” value is reported as “no effect” and the “effect … PBN-containing sample” value is “no effect”.

For `[H]/N=C(/N)N[C@H]1[C@H](O)[C@@H](O)[C@H](O[C@@H]2O[C@@H](C)[C@](O)(C=O)[C@H]2O[C@@H]2O[C@@H](CO)[C@H](O)[C@@H](O)[C@@H]2NC)[C@@H](N/C(N)=N\[H])[C@@H]1O` [streptomycin], in assay [1], the “effect on yeast growth, control sample” value is “no effect” and the “effect … PBN-containing sample” value is reported as “no effect”.

The values above are taken from patent EP0173944A2, “Enhanced inhibition of yeast cell growth” (MILES INC., priority 1984, dated 1986).
